In patent publication US10328075B2, “Method of treatment and compounds for use therein” (Baker Heart and Diabetes Institute, priority 2015, dated 2019):

Experiments:
hFPR2 [1] = molecular target: T1, hFPR2 (Homo sapiens, UniProt P25090); test: Inhibition of forskolin-stimulated cAMP accumulation in hFPR2-FlpIn-CHO cells; type: cell-based; conditions: for ΔLog(τ/KA), inhibition of cAMP accumulation, hFPR2-Flpln-CHO: normalized transduction coefficient, reference agonist Cmpd43; for Log(τ/KA), inhibition of cAMP accumulation, hFPR2-Flpln-CHO: transduction coefficient; for Effect on the cAMP response at hFPR2: over the concentration range tested
T1 construct: expressed in transfected cells
T1 sequence (P25090 1-351): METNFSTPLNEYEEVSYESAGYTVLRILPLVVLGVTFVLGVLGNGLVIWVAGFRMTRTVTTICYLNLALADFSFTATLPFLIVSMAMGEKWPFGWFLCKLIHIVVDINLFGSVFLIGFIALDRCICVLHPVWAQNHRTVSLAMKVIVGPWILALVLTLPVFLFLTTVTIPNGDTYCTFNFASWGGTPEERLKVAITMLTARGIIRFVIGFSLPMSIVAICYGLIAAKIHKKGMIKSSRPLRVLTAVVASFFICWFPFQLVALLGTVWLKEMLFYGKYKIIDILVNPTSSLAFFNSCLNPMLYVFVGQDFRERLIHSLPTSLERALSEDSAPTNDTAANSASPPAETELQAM
Text: (§1) cDNDA construct and generation of stable cell lines: cDNA in pcDNA3.1^+ encoding the human formyl peptide receptors (FPR) subtypes, hFPR1, hFPR2 and hFPR3 was obtained from Invitrogen. The sequences for 3 hFPR receptors were amplified by PCR and cloned into the Gateway entry vector, pDONR202™, using the BP clonase enzyme mix, according to the manufactures' instructions (Invitrogen Inc, Carlsbad, Calif., USA). All hFPR receptors constructs in pDONR201™ were subsequently transfected into the pEF5/FRT/V5/dest vector using the LR clonase enzyme mix (Invitrogen). Receptor constructs (pEF5/FRT/V5/dest) were used to transfect FIp-In CHO cells as described previously (Valant C et al., PNAS, 2014). Cells were selected using 500 μg/mL hydromycin to generate cell lines stably expressing each receptor construct. Cells were maintained and cultured in high glucose DMEM supplemented with 10% FBS, 16 mM HEPES and 500 μg/mL hydromycin at 37° C. under a humidified atmosphere containing 5% CO2.
(§2) In the various assays described below, cells were plated into 96-well transparent cell culture plates at 4×10^4 cells per well, cultured overnight in serum-free media at 37° C. in 5% CO2.
cAMP Accumulation: CHO-hFPR1, -hFPR2 and -hFPR3 stable transfected cells were plated into 96-well plates and cultured overnight at 37° C. in 5% CO2. Cells were washed with PBS, and cultured overnight. […] Cells were lysed in detection buffer (dH2O, 0.3% Tween 20, 5 mM HEPES, 0.1% BSA). Lysates were transferred to a 384-well plate and mixtures of detection buffer/donor bead-conjugated anti-cAMP antibody and detection buffer: biotinylated cAMP: acceptor bead-conjugated streptavidin were added to the lysates according to the PerkinElmer cAMP Alphascreen protocol. Under low-light conditions, a 1:50 (v:v) dilution of AlphaScreen acceptor beads: stimulation buffer was prepared, 1:150 (v:v) dilution of donor beads and 50 nM biotinylated cAMP in detection buffer was prepared in a 384-well opaque optiplates. Plates were incubated in the dark at room temperature overnight before the fluorescence signal was measured by use of a Fusion-α plate reader (PerkinElmer Life and Analytical Sciences). Data were normalized to the response elicited by 10 μM forskolin at the same time point.
(§3) Data analysis: All data were analysed using GraphPad Prism 6.0 (GraphPad Software, San Deigo, Calif., USA). Where appropriate, concentration-response curves were fitted to derive the maximal agonist effect (Emax), and the ligand potency estimate (pEC50), where Emax is the maximal possible response of the system (not the agonist), basal is the basal level of response in the absence of agonist, and pEC50 is the negative logarithm of the agonist concentration that gives a response halfway between Emax and basal.
(§4) In the present study, FIp-IN CHO cells and Gateway plasmid were obtained from Invitrogen Inc (Carlsbad, Calif., USA). The sequences for all 3 known human FPRs (hFPR1, hFPR2 and hFPR3) were amplified by PCR and cloned into the Gateway entry vector, pDONR202TM, using the BP clonase enzyme mix, according to the manufacturers' instructions. The hFPR pDONR201TM constructs were subsequently transfected into the pEF5/FRT/V5/dest vector using the LR clonase enzyme mix (Invitrogen). Receptor constructs (pEF5/FRT/V5/dest) were used to transfect FIp-IN CHO cells, as described previously (Valant et al. 2014). Cells were selected using 500 μg/mL hydromycin to generate cell lines stably expressing each human receptor construct. Cells were maintained and cultured in high glucose Dulbecco's modified eagle medium (DMEM) supplemented with 10% fetal bovine serum (FBS, from JRH Biosciences, Lenexa, Kans., USA) and 500 μg/mL hydromycin B (Invitrogen Inc) at 37° C. under a humidified atmosphere containing 5% CO2. Cell were plated into 96-well transparent cell culture plates at 4×10^4 cells per well, cultured overnight in serum-free media at 37° C. in 5% CO2.

hFPR2 [2] = molecular target: T1, hFPR2; test: Akt1/2/3 (Ser473) phosphorylation in hFPR2-FlpIn-CHO cells; type: cell-based; conditions: for ΔLog(τ/KA), Akt 1/2/3 (Ser473) phosphorylation, hFPR2-Flpln-CHO: normalized transduction coefficient, reference agonist Cmpd43; for Log(τ/KA), Akt 1/2/3 (Ser473) phosphorylation, hFPR2-Flpln-CHO: transduction coefficient
Text: as §1, §2
Measurement of Akt1/2/3 phosphorylation and Akt 1: The same lysate was used for measurement of Akt1/2/3 phosphorylation (Ser473) and Akt1 (Thr308). Cells were lysed in SureFire lysis buffer and transferred to 384-well opaque proxiplates. Under low-light conditions, a 1:10:40 (v:v:v) dilution of AlphaScreen acceptor beads:Surefire activation buffer:Surefire reaction buffer was prepared and the plate was incubated in the dark at RT for 2 h. Then, a 1:20 (v:v) dilution of AlphaScreen donor beads/dilution was prepared and incubated in the dark at RT for another 2 h, before the fluorescence signal was measured by used of a Fusion-α plate reader (PerkinElmer Life and Analytical Sciences) with standard AlphaScreen settings. Receptor mediated phosphorylation of Akt1/2/3 (Ser473) and Akt1 (Thr308) were determined using the AlphaScreen™ […] SureFire™ kit, as per as per manufacturer's instructions. Data were normalized to the maximal response elicited by 10% (v:v) FBS at the same time point.
as §3, §4

[3] = Table 4, percentage inhibition of forskolin-stimulated cAMP accumulation, read-out: Emax (%), inhibition to cAMP accumulation, hFPR2-Flpln-CHO
[4] = Table 8, percent inhibition of forskolin-induced cAMP accumulation, read-out: Emax, inhibition of cAMP accumulation, hFPR2-Flpln-CHO
[5] = Table 3, percentage of Akt1/2/3 phosphorylation elicited by 10% FBS, read-out: Emax (%), Akt 1/2/3 (Ser473), hFPR2-Flpln-CHO
[6] = Table 8, percent of response elicited by 10% FBS, read-out: Emax, Akt 1/2/3 (Ser473) phosphorylation, hFPR2-Flpln-CHO

Row | SMILES | Emax (hFPR2 [1]; [3]) [%] | EC50 (hFPR2 [1]; Table 4, read-out: pEC50, inhibition to cAMP accumulation, hFPR2-Flpln-CHO (converted)) [nM] | ΔLog(τ/KA), inhibition of cAMP accumulation, hFPR2-Flpln-CHO (hFPR2 [1]; Table 8) | Emax (hFPR2 [1]; [4]) [%] | EC50 (hFPR2 [1]; Table 8, read-out: pEC50, inhibition of cAMP accumulation, hFPR2-Flpln-CHO (converted)) [nM] | Log(τ/KA), inhibition of cAMP accumulation, hFPR2-Flpln-CHO (hFPR2 [1]; Table 8) | Effect on the cAMP response at hFPR2 (hFPR2 [1]) | Emax (hFPR2 [2]; [5]) [%] | EC50 (hFPR2 [2]; Table 3, read-out: pEC50, Akt 1/2/3 (Ser473), hFPR2-Flpln-CHO (converted)) [nM] | ΔLog(τ/KA), Akt 1/2/3 (Ser473) phosphorylation, hFPR2-Flpln-CHO (hFPR2 [2]; Table 8) | Emax (hFPR2 [2]; [6]) [%] | EC50 (hFPR2 [2]; Table 8, read-out: pEC50, Akt 1/2/3 (Ser473) phosphorylation, hFPR2-Flpln-CHO (converted)) [nM] | Log(τ/KA), Akt 1/2/3 (Ser473) phosphorylation, hFPR2-Flpln-CHO (hFPR2 [2]; Table 8)
1 | CC(C)C1C(NC(=O)Nc2ccc(Cl)cc2)C(=O)N(c2ccccc2)N1C (stereo not shown) [BIDI-002] | 66 ± 6 | 170 | 0.0 | 66 ± 6 | 251 | 6.5 ± 0.1 | caused an inhibition of the cAMP response | 30 ± 6 | 145 | 0.0 | 30 ± 6 | 158 | 6.9 ± 0.4
2 | CSCC[C@H](NC=O)C(=O)N[C@@H](CC(C)C)C(=O)N[C@@H](Cc1ccccc1)C(=O)O [fMLP, N-formyl-Met-Leu-Phe] | 10 ± 8 | – | −1.6 ± 0.2 | 10 ± 8 | – | 4.9 ± 0.1 | caused an inhibition of the cAMP response | 13 ± 4 | – | −2.0 ± 0.2 | 20 ± 4 | – | 4.9 ± 0.2
